Test results reported in patent publication US20060057669A1, “Inactive transcription factor tif-ia and uses thereof” (priority 2002, published 2006).

Tests used:
[1] = test system: pre-rRNA synthesis in NIH3T3 cells; test: Northern blot of cellular pre-rRNA after mitogenic stimulation; assay type: cell-based; conditions: starved NIH3T3 cells stimulated by serum, bFGF, EGF or TPA; 40 μM PD98059, 30 min
Description: (C) PD98059 inhibits mitogenic stimulation of Pol I transcription. NIH3T3 cells were starved in DMEM/0.1% FCS for 12 hr before stimulation by serum, 10 ng/ml bFGF, 50 ng/ml EGF or 0.1 μM TPA in the absence or presence of 40 μM PD98059 for 30 min. Cellular RNA was isolated and the level of pre-rRNA, c-jun mRNA and cytochrome C oxidase (cox) mRNA was monitored on Northern blots.
NIH3T3, HEK293T and CLL39 cells were cultured in Dulbecco's modified Eagles medium (DMEM) supplemented with 10% fetal calf serum. Cells were transfected with 5 μg of DNA per 10^6 cells using the calcium phosphate DNA coprecipitation method. Total RNA was isolated after 48 h and analyzed on Northern blots as described (Voit et al., EMBO J. 18 (1999), 1891-1899). Cellular pre-rRNA levels were monitored by hybridization to antisense RNA complementary to the first 155 nucleotides of unprocessed 45S pre-RNA. Transcripts from the rDNA reporter plasmid were monitored by hybridization to a riboprobe that is complementary to pUC sequences inserted between the rDNA promoter and terminator sequences of pMrl930-BH. […] Transcripts from the rDNA reporter plasmid were monitored by hybridization to a riboprobe that is complementary to pUC sequences inserted between the rDNA promoter and terminator sequences of pMrl930-BH. […]

TIF-IB/SL1 = test: Co-immunoprecipitation of TIF-IB/SL1 with TIF-IA mutants from HEK293T cells; assay type: binding, human
Description: (B) A mutant that mimics phosphorylation of TIF-IA at S199 fails to interact with Pol I and TIF-IB. FLAG-tagged wild-type TIF-IA or the indicated point mutants were overexpressed in HEK293T cells and immunoprecipitated from cell lysates with anti-FLAG antibodies (M2 agarose). Co-precipitated Pol I and TIF-IB/SL1 were visualized on Western blots with anti-RPA116 and anti-TAFI110 antibodies.
Immunoprecipitations were carried out from human cells overexpressing FLAG-tagged TIF-IA. Cells were lysed in IP buffer, cleared by centrifugation at 10,000×g for 30 min, and the supernatants were incubated for 4 hr at 4° C. with anti-FLAG (M2) agarose (Sigma). To analyze the interaction of TIF-IA with TIF-IB/SL1, the immunoprecipitates were washed with IP buffer and TIF-IB/SL1 was visualized on immunoblots with α-TAFI110 antibodies. To monitor the interaction of TIF-IA with Pol I, the immunoprecipitates were washed with IP buffer containing 600 mM NaCl and Pol I was analyzed on Western blots using antibodies against the second largest subunit of Pol I (RPA116) or PAF67 (Seither et al., J. Biol. Chem. 382 (2001), 1163-1170).
Given the importance of mTOR-mediated alterations in the phosphorylation pattern on TIF-IA activity, one could predict that either phosphorylation of S199, dephosphorylation of S44 or both regulate the interaction of TIF-IA with the Pol I transcription apparatus. It was therefore examined whether the S→A or S→D point mutant(s) were capable of interacting with Pol I and/or TIF-IB/SL1. For this, TIF-IA was precipitated from cells overexpressing either FLAG-tagged wild-type TIF-IA or the respective S199 and S44 mutant(s), and co-precipitated Pol I and TIF-IB/SL1 were visualized on Western blots.

Compound	effect on serum- and growth factor-induced pre-rRNA synthesis [1]	interaction with TIF-IB/SL1 (co-precipitated TAFI110) (TIF-IB/SL1)
COc1cccc(-c2cc(=O)c3ccccc3o2)c1N [PD98059]	blocked serum- and growth factor-induced stimulation of pre-rRNA synthesis	–
TIF-IA: wild-type human transcription initiation factor TIF-IA, accession No. AJ272050	–	interacted with both Pol I and TIF-IB/SL1
